From paper PMC9609767, “Radiosynthesis and Preclinical Evaluation of an ^18F-Labeled Triazolopyridopyrazine-Based Inhibitor for Neuroimaging of the Phosphodiesterase 2A (PDE2A)” (Pharmaceuticals, 2022)
Values joined by “and” are separate entries in the source; they are usually repeats but may differ in a detail not shown here. Equal values may be shown once. Read-outs that look alike come from different tables or passages of the source.

Columns and labels:
[1] = test system: PDE10A; assay: Inhibitory potency against PDE10A; format: biochemical; conditions: PDE2A vs. PDE10A
[2] = test system: PDE2A; set-up: method as in earlier work; conditions: cited from earlier work
[3] = test system: PDE10A; set-up: method as in earlier work; conditions: read-out: IC50, PDE10A (PDE10A1); cited from earlier work
[4] = target: T1, rat PDE2A (Rattus norvegicus, UniProt Q01062); assay: In vitro autoradiography with rat brain cryosections; format: binding; conditions: co-incubation with 1 µM inhibitor
T1 construct: Frozen sagittal 12 µm brain sections obtained from female SPRD and male Wistar-Han rats; from tissue; host or cells: rat brain cryosections (female SPRD and male Wistar-Han rats)
T1 sequence (Q01062 1-928): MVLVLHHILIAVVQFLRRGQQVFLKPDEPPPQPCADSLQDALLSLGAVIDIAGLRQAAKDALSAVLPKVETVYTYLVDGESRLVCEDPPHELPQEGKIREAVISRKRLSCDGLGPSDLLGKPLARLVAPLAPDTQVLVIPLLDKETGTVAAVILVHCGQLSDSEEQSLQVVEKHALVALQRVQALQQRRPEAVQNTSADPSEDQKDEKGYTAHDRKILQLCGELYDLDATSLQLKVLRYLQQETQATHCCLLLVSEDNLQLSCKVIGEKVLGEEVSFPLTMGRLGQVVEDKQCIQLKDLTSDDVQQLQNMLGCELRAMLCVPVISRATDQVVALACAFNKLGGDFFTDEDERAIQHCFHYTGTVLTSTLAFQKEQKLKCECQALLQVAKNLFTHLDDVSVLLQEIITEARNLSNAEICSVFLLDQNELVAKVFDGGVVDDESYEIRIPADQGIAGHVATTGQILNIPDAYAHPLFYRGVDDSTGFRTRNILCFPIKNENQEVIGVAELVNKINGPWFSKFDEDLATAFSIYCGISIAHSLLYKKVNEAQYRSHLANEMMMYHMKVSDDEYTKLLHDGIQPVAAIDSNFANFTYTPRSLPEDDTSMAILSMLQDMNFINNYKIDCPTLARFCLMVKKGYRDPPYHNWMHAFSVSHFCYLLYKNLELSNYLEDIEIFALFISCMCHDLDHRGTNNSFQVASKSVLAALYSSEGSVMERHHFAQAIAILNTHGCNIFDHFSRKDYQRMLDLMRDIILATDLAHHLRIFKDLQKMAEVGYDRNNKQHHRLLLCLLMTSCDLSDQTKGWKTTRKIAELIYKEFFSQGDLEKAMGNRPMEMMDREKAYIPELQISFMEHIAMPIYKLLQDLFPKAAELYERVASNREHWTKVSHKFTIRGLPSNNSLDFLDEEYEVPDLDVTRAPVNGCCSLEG
Protocol: Frozen sagittal 12 µm brain sections obtained from female SPRD and male Wistar-Han rats (10–12 weeks old) were thawed, dried in a stream of cold air, and pre-incubated for 15 min with incubation buffer (50 mM TRIS-HCl, pH 7.4; supplemented with 1 mM MgCl2, 1 mM CaCl2, 2 mM KCl, and 2 U/mL Adenosine deaminase) at ambient temperature. Afterwards, the buffer was decanted and the cryosections dried again in a stream of cold air before covering with the radioligand in incubation buffer (~0.1 MBq [^18F]11/mL; Am at the time of the incubation ~10 GBq/µmol) for incubation at ambient temperature for 90 min.
The incubation was terminated by pouring off the incubation solution and washing the slides twice with ice-cold buffer (50 mM TRIS-HCl, pH 7.4/4 °C) for 2 min and rinsing by dipping in ice-cold demineralised water. Immediately afterwards, the sections were dried in a stream of cold air and exposed along with appropriate radioactive standards (1 µL of serial dilutions of the radioligand in incubation buffer, pipetted on a microscopic glass slide and air dried) to an ^18F-sensitive image plate for 120 min. Finally, the imaging plate was scanned at the highest possible resolution (pixel size 12.6 µm × 12.6 µm) in a phosphor imager (HD-CR 35; Duerr NDT GmbH, Bietigheim Bissingen, Germany) and the digital image analysed with an image analysis program (Aida Image Analyzer v. 4.26; Elysia-raytest GmbH, Straubenhardt, Germany).
For the determination of the protein concentration, four dried 12 µm cryosections were scraped from the microscopic glass slides, transferred in an Eppendorf tube and solubilised with 200 µL of demineralised water. The protein concentration of this solution was determined by a commercial assay (Pierce™ BCA Protein Assay Kit, Thermo Fisher Scientific, Schwerte, Germany). The area of the cryosections was determined during the analysis of the digitized autoradiographic images, and the volume was calculated by multiplying the area with the thickness of the slices. Finally, the protein concentration of the tissue was calculated (37 mg protein/g wet weight).

[5] = test system: human PDE2A; set-up: method as in PMID 15555642; conditions: cited from earlier work
[6] = test system: bovine PDE2A; set-up: method as in PMID 15555642; conditions: cited from earlier work
[7] = test system: PDE2A; conditions: cited from earlier work

| Compound | selectivity vs. PDE10A [1] [fold] | IC50 [2] [nM] | IC50 [3] | blocking of [18F]11 binding in rat brain sections [4] | IC50 [5] [nM] | IC50 [6] [nM] | IC50 [7] [nM] |
| --- | --- | --- | --- | --- | --- | --- | --- |
| CCCC(O)c1ccc(F)c(-c2nnc3c(C)nc4ccc(C5CC5)nc4n23)c1 (centres unmarked) [Compound 11, 1-[3-(2-Cyclopropyl-6-methylpyrido[3,2-e][1,2,4]triazolo[4,3-a]pyrazin-9-yl)-4-fluorophenyl]butan-1-ol] | ~1000 | 1.99 | ~2000 nM and 1910 nM |  |  |  |  |
| COc1ccc(Cc2nn3c([C@@H](CCCc4ccccc4)[C@@H](C)O)nc(C)c3c(=O)[nH]2)cc1OC [BAY60-7550] |  |  |  | completely blocked | 4.7 | 2 |  |
| Cc1nc(-c2cnn(C)c2-c2ccc(C(F)(F)F)cn2)c2c(N3CCC3)ncnn12 [PF-05180999, reference compound] |  |  |  | completely blocked |  |  | 1.6 |
